Assay results taken from patent EP0403251A2, “Monokine activity interference” (SMITHKLINE BEECHAM CORPORATION, priority 1989, dated 1990).
Entries after “also recorded” stand apart in the source; their conditions may differ. Where two headings read alike, the source gives them in different places.

Legend:
TNF [1] = assay: In vivo endotoxin shock models (P. acnes model and/or LPS-GAL model, not specified which); set-up: species or system mice; conditions: for in vivo TNF levels / protection from endotoxic induced shock: one or both of the in vivo assays (P. acnes / LPS-GAL)
Description: Two models of endotoxin shock have been utilized to determine in vivo TNF activity and are described below. The actual protocoll used in the models is described in Utility Model Examples A and B set out below, i.e. P. Acnes model and LPS-GAL model.
(§1) Briefly, D-gal ([…]) sensitizes various strains of mice to the lethal effects of endotoxin. The administration of D-gal (300-500mg/kg) intra-venously (i.v.) sensitizes the mice to doses of Lipopolysaccharide(LPS ) as low as 0.1 mg. Briefly, male C57BL/6 mice, obtained from Charles River Laboratories (Stone Ridge, New York, USA) of 6-12 weeks of age were injected i.v. with 0.1 mg of LPS from Salmonella typhosa (Difco Laboratories, Detroit, Michigan, USA) admixed with D(+)-gal (Sigma; 500 mg/kg) in 0.20-0.25 ml pyrogen-free saline. Compounds to be tested were administered at various times prior to or following the iv. injection of LPS/D-gal.
(§2) This model is a modification of the previously described protocol for the in vivo induction of TNF as described in Haranaka et al., Cancer Immunol Immunother, 18:87-90, (1984). Treatment with Proprionibacterium Acnes (P. acnes) (1mg/animal i.p.) renders mice susceptible to the lethal effects of LPS injected 10 days later.
(§3) P. acnes was purchased from Burroughs Wellcome (Triangle Park, North Carolina, USA), and […]of the heat-killed bacteria was administered in 0.5 ml pyrogen-free saline by intraperitoneal (i.p.) injection to male C57BL/6 mice, obtained from Charles River Laboratories (Stone Ridge, New York, USA) of 6-12 weeks of age. Ten days later, the mice were injected iv. with 1 mg LPS in 0.25 ml saline. Compounds to be tested were administered at various times prior to or following the injection of LPS. The survival of animals was monitored for 1 week.
(§4) Plasma levels of TNF were measured using a modification of the basic sandwich ELISA method described in Winston et al., Current Protocols in Molecular Biology, Pg. 11.2.1, Ausubel et al., Ed. (1987) John Wiley and Sons, New York, USA. The Elisa employed a hampster monoclonal anti-mouse TNF (Genzyme, Boston, MA, USA) as the capture antibody and a polyclonal rabbit anti-murine TNF (Genzyme, Boston, MA, USA) as the detecting antibody. TNF levels in rat samples were calculated from a standard curve genereated with recombinant murine TNF (Genzyme, Boston, MA, USA).

[2] = tested on: TNF Production by Human Monocytes; assay: Inhibitory effect on in vitro LPS induced TNF production by human monocytes (ELISA); format: cell-based; conditions: Monocyte; LPS (50 ng/ml) induced TNF, human peripheral blood monocytes, compound added 1 hr before LPS, 24 hours; NA - not active; read-out: IC₅₀
Description: The effects of the compounds enumerated above on the in vitro production of TNF by human monocytes was examined using the following protocol..
Bacterial lipopolysaccharide (LPS) was used to induce TNF production by human peripheral blood monocytes. TNF activity was measured by a modification of Winston et al., ELISA, described below. Human peripheral blood monocytes were isolated and purified from either fresh blood preparations from volunteer donors, from blood bank buffy coats, or from plateletpheresis residues according to the procedure of Colotta et al., J. Immunol., 132, 936 (1984). 1 X 10⁶ of such monocytes were plated in 24-well plates at a concentration of 1-2 million/ml per well. The cells were allowed to adhere for 2 hours, after which time non-adherent cells were removed by gentle washing. Test compounds were then added to the cells for 1 hour (hr) before the addition of LPS (50 ng/ml), and the cultures were incubated at 37 °C for an additional 24 hours. At the end of the incubation period, culture supernatants were removed and clarified of cells and all debris. Culture supernatants were immediately assayed for TNF levels in the manner described below.
Levels of TNF were mesured using a modification of the basic sandwich ELISA assay method described in Winston et al., Current Protocols in Molecular Biology. Page 11.2.1, Ausubel et al., Ed. (1987) John Wiley and Sons, New York, USA The Elisa employes a murine monoclonal anti-human TNF antibody, described below, as the capture antibody and a polyclonal rabbit anti-human TNF , described below, as the second antibody. For detection, a peroxidase-conjgated goat anti-rabbit antibody (Boehringer Mannheim, Indianopolis, Indiana, USA, Catalog #605222) was added followed by a substrate for peroxidase (1mg/ml orthophenylenediamine with 0.1% urea peroxide). TNF levels in samples were calculated from a standard curve genereated with recombinant human TNF produced in E. Coli (obtained from SmithKline Beecham Pharmaceuticals, King of Prussisa, PA, USA).
Monoclonal antibodies to human TNF were prepared from spleens of BALB/c mice immunized with recombinant human TNF using a modification of the method of Kohler and Millstein, Nature 256: 495(1975), the entire disclosure of which is hereby incorporated by reference. Polyclonal rabbit anti-human TNF antibodies were prepared by repeated immunization of New Zeland White (NZW) rabbits with recombinant human TNF emulsified in complete Freund's adjuvant (DIFCO, IL., USA).

[3] = tested on: IL-1 production by bacterial lipopolysaccharide (LPS)-stimulated human monocytes; conditions: cited from earlier work
TNF [4] = assay: Endotoxin shock in D-gal-sensitized mice (LPS-GAL model), TNF levels by ELISA and survival; format: in vivo; conditions: for reduction of serum TNF levels: LPS-GAL Model, 100 mg/kg, Figure 4; for survival rate: LPS-GAL model, animals with endotoxic shock, Figure 5, control group 30%
Description: as §1, with “The protocol used to test the compound of the method of the subject invention was essentially as has been described in Galanos et al., Proc. Nat'l Acad. Sci USA, 76:5939-43 (1979) whose disclosure is herein incorporated by reference. Briefly, D-gal” for “Briefly, D-gal”, “of LPS/D-gal. In this model, the control animals usually die 5-6 hr. following the injection of LPS, although on occasion deaths are seen between 24 and 48 hr.” for “of LPS/D-gal.”
as §4, with “USA). TNF levels determined by ELISA correlated with levels detected by the L929 bioassay of Ruff et. al., J. Immunol. 125:1671-1677 (1980), with 1 Unit of activity in the bioassay corresponding to 70 picograms (pg) of TNF in the ELISA. The ELISA detected levels of TNF down to 25 pg/ml.” for “USA).”

cyclooxygenase = conditions: Lee et al. 1988; cited from earlier work
TNFa = conditions: Badger et al. 1989, cited from earlier work
[5] = tested on: TNFa production by monocytes; conditions: Lee et al. 1988 and Badger et al. 1989; cited from earlier work
5-lipoxygenase = biological target: T1, 5-lipoxygenase (Homo sapiens, UniProt P09917); conditions: Lee et al. 1988; cited from earlier work
T1 sequence (P09917 1-674): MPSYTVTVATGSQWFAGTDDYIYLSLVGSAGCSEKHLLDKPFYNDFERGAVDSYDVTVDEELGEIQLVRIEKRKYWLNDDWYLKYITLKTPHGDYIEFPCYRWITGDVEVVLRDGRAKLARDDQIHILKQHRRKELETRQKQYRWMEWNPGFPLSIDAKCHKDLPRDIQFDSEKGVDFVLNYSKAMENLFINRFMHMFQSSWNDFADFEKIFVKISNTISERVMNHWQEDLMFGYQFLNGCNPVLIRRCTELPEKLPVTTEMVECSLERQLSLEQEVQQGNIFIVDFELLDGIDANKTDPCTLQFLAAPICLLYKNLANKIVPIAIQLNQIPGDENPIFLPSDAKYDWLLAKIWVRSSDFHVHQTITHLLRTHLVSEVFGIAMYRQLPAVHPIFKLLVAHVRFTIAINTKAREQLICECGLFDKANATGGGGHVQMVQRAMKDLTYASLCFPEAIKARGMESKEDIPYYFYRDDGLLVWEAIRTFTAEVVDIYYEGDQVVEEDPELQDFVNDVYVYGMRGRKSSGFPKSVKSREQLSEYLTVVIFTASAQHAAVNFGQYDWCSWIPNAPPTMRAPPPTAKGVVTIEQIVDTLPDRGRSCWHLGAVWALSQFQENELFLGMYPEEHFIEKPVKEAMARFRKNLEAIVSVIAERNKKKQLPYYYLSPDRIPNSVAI

TNF [6] = assay: Endotoxin shock in P. acnes-sensitized mice (P. acnes/LPS model), TNF levels by ELISA; format: in vivo; conditions: P acnes/LPS treated mice, increased oral dosage, Figure 1
Description: as §2, §3
Plasma levels of TNF were measured using a modification of the basic sandwich ELISA method described in Winston et al., Current Protocols in Molecular Biology, Pg. 11.2.1, Ausubel et al., Ed. (1987) John Wiley and Sons, New York, USA. […] TNF levels in rat samples were calculated from a standard curve genereated with recombinant murine TNF (Genzyme, Boston, MA, USA). TNF levels determined by ELISA correlated with levels detected by the L929 bioassay of Ruff et. al., J. Immunol. […] The ELISA detected levels of TNF down to 25 pg/ml.

SMILES: O=S1(=O)CCn2c1nc(-c1ccc(F)cc1)c2-c1ccncc1 [6-(4-Fluorophenyl)-5-(4-pyridyl)-2,3-dihydroimidazo[2,1-b]thiazole-1,1-dioxide]
- in vivo TNF levels (TNF [1]): inhibited in vivo TNF levels
- protection from endotoxic induced shock (TNF [1]): protected the animals from endotoxic induced shock

SMILES: O=S1(=O)CCn2c1nc(-c1ccc(F)cc1)c2-c1ccncc1 [Compound 14, 6-(4-Fluorophenyl)-5-(4-pyridyl)-2,3-dihydroimidazo[2,1-b]thiazole-1,1-dioxide]
- IC50 [2]: 9000 nM

SMILES: Fc1ccc(-c2nc3n(c2-c2ccncc2)CCS3)cc1 [Compound 1, 6-(4-Flurophenyl)-5-(4′pyridyl)-2,3-dihydroimidazo[2,1-b]-thiazole]
- IL-1 production ([3]; Lee et al. 1988, listed as 5-(4-pyridyl)-6(4-fluorophenyl)-2,3-dihydroimidazo(2,1-B)-thiazole): inhibit
- IL-1 production ([3]; Lee et al. 1988, listed as 5-(4-pyridyl)-6(4-fluorophenyl)-2,3-dihydroimidazo(2,1-B)thiazole): potent inhibitor
- protection from the lethal effects of endotoxin shock (TNF [1]; P. Acnes model and LPS-GAL model): protection from the lethal effects of endotoxin shock
- in vivo TNF levels (TNF [1]): reduce the in vivo level of tumor necrosis factor (TNF)
- reduction of serum TNF levels (TNF [4]): reduction of serum TNF levels
- survival rate (TNF [4]): 100%
- TNF production (TNF [4]; LPS-Gal mouse model, i.p. injection, Figure 3): inhibitis TNF production
- cyclooxygenase-mediated arachidonate metabolism (cyclooxygenase): inhibits
- circulating levels of TNFa (TNFa; mouse models of LPS-induced shock): inhibition of circulating levels of TNFa
- protection against LPS-induced shock (TNFa; two mouse models): protection
- TNFa production by monocytes [5]: inhibit
- 5-lipoxygenase-mediated arachidonate metabolism (5-lipoxygenase): inhibits

SMILES: CC(=O)OCSc1ccc(-c2nc3n(c2-c2ccncc2)CCC3)cc1 [Compound 9, 2-(4-Acetoxymethylthiophenyl)3-(4-pyridyl)-6,7-dihydro[5H]pyrrolo-[1,2-a]-imidazole]
- IC50 [2]: 3000 nM

SMILES: COc1ccc(-c2nc3n(c2-c2ccncc2)CCC3)cc1 [Compound 10, 2-(4-Methoxyphenyl)-3-(4-pyridyl)-6,7-dihydro-[5H]-pyrrolo-[1,2-a]imidazole]
- IC50 [2]: 500 nM

SMILES: CSc1ccc(-c2nc3n(c2-c2ccnc(C)c2)CCC3)cc1 [Compound 16, 2-(4-Methylthiophenyl)-3-[4-(2-methylpyridyl)]-6,7-dihydro[5H]pyrrolo-[1,2-a]imidazole]
- in vivo TNF levels (TNF [1]): inhibited in vivo TNF levels

SMILES: CSc1ccc(-c2nc3n(c2-c2ccncc2)CCC3)cc1 [Compound 3, 2-(4-methylthiophenyl)-3-(4-pyridyl)-6,7-dihydro-[5H]-pyrrolo[1,2-a]-imidazole]
- IC50 [2]: 1000 nM

SMILES: COc1ccc(-c2nc3n(c2-c2ccncc2)CCC3O)cc1 (stereo not drawn) [Compound 8, 5,6-dihydro-2-(4-methoxyphenyl)-3-(4-pyridinyl)-[7H]-pyrrolo[1,2-a]-imidazole-7-ol]
- IC50 [2]: 1000 nM

SMILES: CC[S+]([O-])c1ccc(-c2nc3n(c2-c2ccncc2)CCC3)cc1 (stereo not drawn) [Compound 15, 2-(4-Ethylsulfinylphenyl)-3-(4-pyridyl)-6,7-dihydro[5H]pyrrolo[1,2-a]imidazole]
- IC50 [2]: 7000 nM
- in vivo TNF levels (TNF [1]): inhibited in vivo TNF levels
- protection from endotoxic induced shock (TNF [1]): protected the animals from endotoxic induced shock

SMILES: C[S+]([O-])c1ccc(-c2nc3n(c2-c2ccncc2)CCC3)cc1 (stereo not drawn) [Compound 2, 2-(4-Methylsulfoxyphenyl)3-(4-pyridyl)-6,7-dihydro[5H]-pyrrolo-[1,2-a]imidazole]
- serum TNF levels (TNF [6]): reduction in serum TNF levels
- in vivo TNF levels (TNF [1]): in vivo activity; also recorded: reduce the in vivo level of tumor necrosis factor (TNF)
- reduction of serum TNF levels (TNF [4]): reduction of serum TNF levels
- survival rate (TNF [4]): 100%
